Bridge positions count the residues as written; N and C are the ends. Peptide text beside a SMILES is read from it.
Test system: Nav1.3/β1
Test: Two-electrode voltage-clamp on Xenopus laevis oocytes expressing Nav1.3/β1
Type: cell-based
Source text: Using the two-electrode voltage-clamp technique on Xenopus laevis oocytes, the effect of PhlTx1 was also compared on eight different cloned vertebrate Nav channels co-expressed with the β1 subunit (Nav1.1-1.8/β1) and on the neuronal insect Nav channel, para, co-expressed with the tipE subunit (Figure 3 and Figure 4). […] Normalized current-voltage relationships (I-V curve) of Nav1.2/β1 and Nav1.3/β1 channels seemed to be shifted towards more negative potentials when PhlTx1 was applied, but shifts were not statistically significant […] (Figure 4). The activation phase of the other studied Nav channel subtypes was not affected. No obvious alteration in channel availability was observed, except a 5-mV negative shift for Nav1.3/β1, although that was also non-significant (p > 0.05).
Figure 4 1 µM of PhlTx1 was tested on Nav1.1/β1, Nav1.2/β1, Nav1.3/β1, Nav1.4/β1, Nav1.5/β1, Nav1.6/β1, Nav1.8/β1 and para/tipE (n ≥ 3). Left column: current traces were evoked by a 50-ms depolarization to the voltage of maximum sodium influx, depending on the Nav studied, from a holding potential of −90 mV. At 1 µM PhlTx1, all studied Nav channels, except Nav1.4/β1, were blocked for about 10% (no toxin: *). The current of Nav1.4/β1 was reduced for about 35 ± 5%. Middle column: normalized I-V curves reveal no significant shift of the activation voltage (p > 0.05). […]

CC(C)C[C@@H]1NC(=O)[C@@H](NC(=O)[C@H](C)N)CSSC[C@@H]2NC(=O)[C@@H]3CSSC[C@@H](C(=O)N[C@@H](CCCNC(=N)N)C(=O)N[C@@H](Cc4ccc(O)cc4)C(=O)N[C@@H](CCCCN)C(=O)N[C@@H](CC(C)C)C(=O)N[C@@H](Cc4ccccc4)C(=O)O)NC(=O)[C@H](Cc4c[nH]c5ccccc45)NC(=O)[C@@H]4CCCN4C(=O)[C@H](Cc4ccc(O)cc4)NC(=O)[C@H](CCCCN)NC(=O)[C@H](Cc4c[nH]c5ccccc45)NC(=O)[C@H](CCC(=O)O)NC(=O)[C@H](CSSC[C@H](NC(=O)[C@H](CO)NC(=O)[C@H](CC(=O)O)NC(=O)[C@H](Cc4c[nH]c5ccccc45)NC(=O)[C@H](CCC(N)=O)NC(=O)CNC1=O)C(=O)N[C@@H](CC(=O)O)C(=O)N1CCC[C@H]1C(=O)N[C@@H](CCCCN)C(=O)N[C@@H](C)C(=O)N[C@@H](CO)C(=O)N[C@@H](CCCCN)C(=O)N3)NC(=O)[C@H](C)NC(=O)[C@H](Cc1ccc(O)cc1)NC(=O)[C@H](CC(N)=O)NC(=O)[C@@H]1CCCN1C2=O [PhlTx1, Phlotoxin-1] (H-ACLGQWDSCDPKASKCCPNYACEWKYPWCRYKLF-OH; disulfide 2-17, 9-22, 16-29; N-terminus and C-terminus assumed)
negative shift in channel availability (1 µM PhlTx1, non-significant (p > 0.05)): 5 mV
block of sodium current (1 µM, voltage of maximum sodium influx, holding −90 mV, oocytes TEVC, n ≥ 3): about 10%

Reference: article PMC6628435, “Chemical Synthesis, Proper Folding, Nav Channel Selectivity Profile and Analgesic Properties of the Spider Peptide Phlotoxin 1” (Toxins, 2019)
